The target in experiment [1] is Tyrosine-protein kinase ABL2 (Homo sapiens) (UniProt P42684). Put plainly: Inhibition of human truncated Arg expressed in baculovirus assessed as substrate phosphorylation using fluorescence-labelled peptides as substrate at 0.1 uM after 90 mins by microfluidic peptide phosphorylation assay.
For experiment [2], the target named is Mitogen-activated protein kinase kinase kinase kinase 4 (Homo sapiens) (UniProt O95819). The following applies: 0.1 uM.
Description: Inhibition of human HGK catalytic domain expressed in baculovirus assessed as substrate phosphorylation using fluorescence-labelled peptides as substrate at 0.1 uM after 90 mins by microfluidic peptide phosphorylation assay
The species named for experiment [3] is Homo sapiens. Nature of the experiment: Inhibition of human P70S6K catalytic domain expressed in baculovirus assessed as substrate phosphorylation using fluorescence-labelled peptides as substrate at 0.2 uM after 90 mins by microfluidic peptide phosphorylation assay.
The target in experiment [4] is T1, Calcium/calmodulin-dependent protein kinase type IV (Homo sapiens) (UniProt Q16566).
T1 sequence (whole entry): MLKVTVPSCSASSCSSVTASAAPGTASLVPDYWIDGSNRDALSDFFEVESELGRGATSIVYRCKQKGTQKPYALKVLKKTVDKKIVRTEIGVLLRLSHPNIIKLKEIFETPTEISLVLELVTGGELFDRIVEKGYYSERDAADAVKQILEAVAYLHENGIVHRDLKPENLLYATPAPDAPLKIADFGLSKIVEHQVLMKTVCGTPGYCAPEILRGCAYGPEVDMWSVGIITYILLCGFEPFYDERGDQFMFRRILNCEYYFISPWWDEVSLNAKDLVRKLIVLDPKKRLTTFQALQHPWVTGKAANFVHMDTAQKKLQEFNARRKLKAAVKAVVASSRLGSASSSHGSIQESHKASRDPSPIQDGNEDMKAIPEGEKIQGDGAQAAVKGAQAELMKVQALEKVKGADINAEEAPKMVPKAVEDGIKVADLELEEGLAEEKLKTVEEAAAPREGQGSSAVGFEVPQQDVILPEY
Nature of the experiment: Inhibition of human full length CAMK4 expressed in baculovirus assessed as substrate phosphorylation using fluorescence-labelled peptides as substrate at 9 uM after 90 mins by microfluidic peptide phosphorylation assay.

Experiment [5] addresses T2, Mitogen-activated protein kinase 12 (Homo sapiens) (UniProt P53778).
T2 sequence (whole entry): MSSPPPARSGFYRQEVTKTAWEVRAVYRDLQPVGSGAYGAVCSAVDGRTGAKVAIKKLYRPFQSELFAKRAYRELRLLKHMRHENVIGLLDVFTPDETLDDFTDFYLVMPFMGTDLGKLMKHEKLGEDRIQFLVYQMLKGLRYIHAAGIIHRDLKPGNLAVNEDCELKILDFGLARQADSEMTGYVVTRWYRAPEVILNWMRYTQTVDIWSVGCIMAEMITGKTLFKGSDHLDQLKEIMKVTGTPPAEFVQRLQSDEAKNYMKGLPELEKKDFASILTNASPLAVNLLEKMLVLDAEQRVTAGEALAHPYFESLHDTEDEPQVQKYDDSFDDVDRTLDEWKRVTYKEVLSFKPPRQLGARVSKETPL
Nature of the experiment: Inhibition of human full length p38 gamma expressed in Escherichia coli cell assessed as substrate phosphorylation using fluorescence-labelled peptides as substrate at 8 uM after 90 mins by microfluidic peptide phosphorylation assay.

The target of experiment [6] is T3, MAP kinase-activated protein kinase 5 (Homo sapiens) (UniProt Q8IW41).
T3 sequence (whole entry): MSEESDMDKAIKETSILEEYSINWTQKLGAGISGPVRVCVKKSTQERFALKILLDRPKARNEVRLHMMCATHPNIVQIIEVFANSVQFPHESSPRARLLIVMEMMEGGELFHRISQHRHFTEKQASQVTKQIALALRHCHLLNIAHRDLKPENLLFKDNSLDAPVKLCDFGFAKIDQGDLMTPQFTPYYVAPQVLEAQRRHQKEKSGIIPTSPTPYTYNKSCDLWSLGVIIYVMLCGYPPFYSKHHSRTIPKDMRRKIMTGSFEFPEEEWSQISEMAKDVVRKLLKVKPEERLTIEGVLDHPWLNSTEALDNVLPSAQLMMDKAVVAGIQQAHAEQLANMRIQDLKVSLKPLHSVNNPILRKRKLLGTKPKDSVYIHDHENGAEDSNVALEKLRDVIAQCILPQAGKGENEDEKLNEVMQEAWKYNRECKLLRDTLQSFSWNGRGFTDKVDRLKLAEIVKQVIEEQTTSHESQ
Put plainly: Inhibition of human full length PRAK expressed in baculovirus assessed as substrate phosphorylation using fluorescence-labelled peptides as substrate at 420 uM after 90 mins by microfluidic peptide phosphorylation assay.

For experiment [7], the target named is T4, Serine/threonine-protein kinase D3 (Homo sapiens) (UniProt O94806).
T4 sequence (whole entry): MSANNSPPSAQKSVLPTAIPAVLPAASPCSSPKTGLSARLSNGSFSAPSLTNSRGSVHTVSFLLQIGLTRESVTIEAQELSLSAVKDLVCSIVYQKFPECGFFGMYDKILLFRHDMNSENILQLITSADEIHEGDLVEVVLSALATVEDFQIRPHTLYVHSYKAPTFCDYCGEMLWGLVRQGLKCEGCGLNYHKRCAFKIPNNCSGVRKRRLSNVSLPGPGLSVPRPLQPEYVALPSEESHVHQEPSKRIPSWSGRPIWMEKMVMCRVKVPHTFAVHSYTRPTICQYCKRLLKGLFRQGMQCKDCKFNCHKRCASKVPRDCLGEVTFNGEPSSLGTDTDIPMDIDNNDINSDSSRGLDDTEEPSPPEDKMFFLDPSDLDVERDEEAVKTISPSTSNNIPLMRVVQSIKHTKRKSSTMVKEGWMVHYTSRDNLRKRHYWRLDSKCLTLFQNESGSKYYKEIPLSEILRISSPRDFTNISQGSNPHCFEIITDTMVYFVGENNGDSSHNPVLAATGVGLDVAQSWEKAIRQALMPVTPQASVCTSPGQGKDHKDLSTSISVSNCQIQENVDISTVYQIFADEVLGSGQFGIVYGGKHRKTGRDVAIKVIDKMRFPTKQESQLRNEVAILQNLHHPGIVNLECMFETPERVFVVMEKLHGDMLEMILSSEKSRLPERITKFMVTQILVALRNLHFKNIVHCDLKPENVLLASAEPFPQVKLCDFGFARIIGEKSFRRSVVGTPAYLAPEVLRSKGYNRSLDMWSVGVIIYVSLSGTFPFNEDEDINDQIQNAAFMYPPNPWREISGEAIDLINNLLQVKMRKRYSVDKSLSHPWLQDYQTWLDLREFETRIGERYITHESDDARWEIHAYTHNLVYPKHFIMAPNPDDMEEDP
Put plainly: Inhibition of human full length PKD3 expressed in baculovirus assessed as substrate phosphorylation using fluorescence-labelled peptides as substrate at 420 uM after 90 mins by microfluidic peptide phosphorylation assay.

Experiment [8] concerns the target Fibroblast growth factor receptor 1 (Homo sapiens) (UniProt P11362). Nature of the experiment: Inhibition of human FGFR1 catalytic domain expressed in baculovirus assessed as substrate phosphorylation using fluorescence-labelled peptides as substrate at 1000 uM after 90 mins by microfluidic peptide phosphorylation assay.

Molecules are shown by their SMILES.

Sequence of Fibroblast growth factor receptor 1 (Homo sapiens) (P11362 22-822 limits assumed): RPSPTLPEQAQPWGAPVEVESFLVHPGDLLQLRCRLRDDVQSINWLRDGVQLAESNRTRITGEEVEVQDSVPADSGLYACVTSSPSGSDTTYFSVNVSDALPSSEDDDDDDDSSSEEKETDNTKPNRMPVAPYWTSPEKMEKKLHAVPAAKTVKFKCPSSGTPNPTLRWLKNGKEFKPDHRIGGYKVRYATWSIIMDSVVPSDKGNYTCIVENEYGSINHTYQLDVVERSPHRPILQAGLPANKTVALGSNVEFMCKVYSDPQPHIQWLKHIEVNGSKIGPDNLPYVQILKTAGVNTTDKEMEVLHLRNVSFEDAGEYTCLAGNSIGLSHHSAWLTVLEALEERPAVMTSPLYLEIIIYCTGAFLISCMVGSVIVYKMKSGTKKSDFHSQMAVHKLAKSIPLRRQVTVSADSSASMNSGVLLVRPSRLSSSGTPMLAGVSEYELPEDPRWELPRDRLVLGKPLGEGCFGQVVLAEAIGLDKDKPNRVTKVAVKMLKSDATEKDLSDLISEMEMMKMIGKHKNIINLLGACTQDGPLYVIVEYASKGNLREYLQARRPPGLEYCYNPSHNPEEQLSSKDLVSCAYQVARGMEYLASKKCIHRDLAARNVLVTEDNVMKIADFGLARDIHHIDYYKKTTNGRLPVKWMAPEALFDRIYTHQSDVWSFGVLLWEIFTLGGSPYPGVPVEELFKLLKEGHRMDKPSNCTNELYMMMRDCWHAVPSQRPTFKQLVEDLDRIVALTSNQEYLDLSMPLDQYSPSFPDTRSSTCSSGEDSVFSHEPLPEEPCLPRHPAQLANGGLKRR
Sequence of Tyrosine-protein kinase ABL2 (Homo sapiens) (P42684 whole entry, the tested form may be a part): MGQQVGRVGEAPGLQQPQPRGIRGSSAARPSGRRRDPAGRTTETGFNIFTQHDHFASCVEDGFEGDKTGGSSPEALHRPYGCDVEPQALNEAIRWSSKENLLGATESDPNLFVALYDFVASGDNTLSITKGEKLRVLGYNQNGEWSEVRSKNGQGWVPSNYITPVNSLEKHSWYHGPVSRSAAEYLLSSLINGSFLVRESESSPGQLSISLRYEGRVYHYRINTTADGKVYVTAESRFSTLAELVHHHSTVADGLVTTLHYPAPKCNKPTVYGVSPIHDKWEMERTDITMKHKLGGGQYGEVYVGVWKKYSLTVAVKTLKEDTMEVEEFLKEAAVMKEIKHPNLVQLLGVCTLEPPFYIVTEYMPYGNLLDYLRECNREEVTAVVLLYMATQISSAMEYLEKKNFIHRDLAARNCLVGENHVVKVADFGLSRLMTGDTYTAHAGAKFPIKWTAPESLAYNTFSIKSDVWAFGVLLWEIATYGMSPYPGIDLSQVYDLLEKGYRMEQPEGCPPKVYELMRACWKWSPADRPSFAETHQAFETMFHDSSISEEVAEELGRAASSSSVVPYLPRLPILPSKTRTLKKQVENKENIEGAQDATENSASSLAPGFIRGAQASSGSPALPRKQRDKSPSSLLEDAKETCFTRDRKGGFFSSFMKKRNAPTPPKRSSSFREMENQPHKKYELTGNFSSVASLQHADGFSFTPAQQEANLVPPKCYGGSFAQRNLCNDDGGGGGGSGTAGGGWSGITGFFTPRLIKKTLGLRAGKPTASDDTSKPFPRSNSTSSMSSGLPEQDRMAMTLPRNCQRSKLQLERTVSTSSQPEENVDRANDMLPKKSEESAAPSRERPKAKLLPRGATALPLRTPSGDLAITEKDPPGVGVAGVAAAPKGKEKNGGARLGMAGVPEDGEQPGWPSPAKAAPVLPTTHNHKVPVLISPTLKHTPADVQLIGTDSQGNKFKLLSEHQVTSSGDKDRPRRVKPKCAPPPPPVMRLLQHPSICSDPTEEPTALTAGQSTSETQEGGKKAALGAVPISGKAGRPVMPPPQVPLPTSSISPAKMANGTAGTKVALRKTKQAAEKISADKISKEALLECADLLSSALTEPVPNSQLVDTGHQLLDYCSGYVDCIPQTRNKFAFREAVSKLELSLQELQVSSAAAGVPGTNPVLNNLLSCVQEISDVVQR
Sequence of Mitogen-activated protein kinase kinase kinase kinase 4 (Homo sapiens) (O95819 2-1239 limits assumed): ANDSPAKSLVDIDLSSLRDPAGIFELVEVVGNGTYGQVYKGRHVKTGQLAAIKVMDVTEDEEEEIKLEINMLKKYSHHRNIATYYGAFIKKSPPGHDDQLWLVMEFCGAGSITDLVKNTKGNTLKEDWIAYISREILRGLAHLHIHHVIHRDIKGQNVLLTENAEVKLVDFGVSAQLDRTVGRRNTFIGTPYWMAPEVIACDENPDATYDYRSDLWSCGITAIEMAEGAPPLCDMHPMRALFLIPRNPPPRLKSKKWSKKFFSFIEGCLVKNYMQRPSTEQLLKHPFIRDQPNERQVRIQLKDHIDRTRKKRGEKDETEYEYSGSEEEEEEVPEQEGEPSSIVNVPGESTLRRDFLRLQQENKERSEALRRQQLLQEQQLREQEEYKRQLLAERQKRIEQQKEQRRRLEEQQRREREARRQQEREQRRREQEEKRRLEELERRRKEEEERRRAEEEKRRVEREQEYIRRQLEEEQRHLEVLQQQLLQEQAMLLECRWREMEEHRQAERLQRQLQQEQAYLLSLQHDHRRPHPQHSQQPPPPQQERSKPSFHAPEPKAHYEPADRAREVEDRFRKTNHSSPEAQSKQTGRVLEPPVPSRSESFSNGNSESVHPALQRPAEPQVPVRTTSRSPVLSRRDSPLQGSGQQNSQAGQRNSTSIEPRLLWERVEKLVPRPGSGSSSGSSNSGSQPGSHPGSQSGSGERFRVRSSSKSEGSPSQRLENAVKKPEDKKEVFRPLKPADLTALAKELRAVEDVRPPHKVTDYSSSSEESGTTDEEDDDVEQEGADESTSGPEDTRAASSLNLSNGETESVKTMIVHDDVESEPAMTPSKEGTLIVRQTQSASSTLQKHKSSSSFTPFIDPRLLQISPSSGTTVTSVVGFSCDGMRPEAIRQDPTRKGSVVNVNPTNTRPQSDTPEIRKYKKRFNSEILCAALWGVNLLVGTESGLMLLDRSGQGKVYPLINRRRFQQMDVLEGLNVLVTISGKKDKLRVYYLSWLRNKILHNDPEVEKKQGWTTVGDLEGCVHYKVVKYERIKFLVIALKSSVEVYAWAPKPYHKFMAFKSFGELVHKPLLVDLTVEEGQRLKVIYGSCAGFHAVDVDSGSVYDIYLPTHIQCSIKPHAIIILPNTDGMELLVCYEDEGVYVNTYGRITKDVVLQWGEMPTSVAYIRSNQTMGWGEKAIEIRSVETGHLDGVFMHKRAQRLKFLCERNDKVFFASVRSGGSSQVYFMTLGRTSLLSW

A word on the inhibition: it is how much of the control response was suppressed. `C[C@H](CN(C)C)Oc1nc(Nc2cc3cccc(Cl)c3cn2)cnc1C#N`: the inhibition in experiment [1] was found to be 1.5%; in experiment [2], 0%.
Turning to `Clc1ccc(C2(c3ccc(-c4ncnc5[nH]cnc45)cc3)CCNCC2)cc1`, in experiment [3], the inhibition came out at 87.5%.
On to `NCC1CN(c2ncnc3[nH]c4cnccc4c23)CCO1` (stereo not drawn), for which, in experiment [4], the inhibition is 31.5%.
Turning to `NCC1CCN(c2ncnc3[nH]ccc23)CC1`, in experiment [5], the inhibition came out at 5%.
Regarding `c1nc(N2CCOCC2)c2nc[nH]c2n1`, the inhibition in experiment [6] turned out to be 40%; in experiment [7], 85%.
On to `c1cnc2[nH]ccc2c1`, for which the inhibition in experiment [8] was determined as 64.5%.

(Values after ChEMBL document CHEMBL3132769, “Fragment growing to retain or alter the selectivity of anchored kinase hinge-binding fragments” (Medchemcomm, 2014).)
